This note sets out measurements from PubChem BioAssay (NCI).

Holding throughout (assay): NCI anticancer screen, dose series, 48 h
Assay [1] relates to A549 NSCLC.
Assay [2] relates to ACHN renal.
The subject of assay [3] is COLO 205 colon.
Assay [4] deals with DU-145 prostate.
The test system of assay [5] is HCC-2998 colon.
Assay [6] has as its system HL-60(TB) leukemia.
Assay [7] relates to HOP-92 NSCLC.
For assay [8], the system named is IGROV1 ovarian.
Assay [9] relates to LOX IMVI melanoma.
Assay [10] deals with MALME-3M melanoma.
For assay [11], the system named is NCI-H460 lung.
Assay [12] relates to NCI/ADR-RES ovarian.
Assay [13] relates to PC-3 prostate.
Assay [14] concerns SF-268 CNS.
The test system of assay [15] is SK-MEL-5 melanoma.
Assay [16] concerns SN12C renal.
The subject of assay [17] is SNB-75 CNS.
The subject of assay [18] is SW-620 colon.
Assay [19] relates to T-47D breast.
For assay [20], the system named is U251 CNS.

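Following 48 hours of exposure in 96-well plates, responses at five concentrations were used to interpolate endpoints linearly. TGI: total growth inhibition.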 A value given as a limit tells only on which side of the number the result lay.

Regarding `c1csc(-c2cscc2-c2ccsc2)c1`, the TGI was more than 100 µM in [1]; more than 100 µM in assay [2]; more than 100 µM in assay [3]; more than 100 µM in assay [4]; more than 89.6 µM in assay [5]; more than 93.8 µM in assay [6]. Further, the TGI in assay [7] is more than 100 µM; in assay [8], more than 100 µM; in assay [9] it was more than 100 µM; in assay [10], 95 µM; in assay [11] it was more than 100 µM; in assay [12], more than 100 µM. Also, the TGI in assay [13] is more than 77.9 µM; in assay [14] it was more than 100 µM; in assay [15], more than 100 µM; in assay [16] it was more than 100 µM; in [17], more than 100 µM; in [18] it was more than 100 µM. The TGI in assay [19] and in [20] was more than 100 µM throughout.
For the molecule `COc1ccc(OC)c2sc(N3C(=O)/C(=C/Cc4ccco4)N=C3c3ccccc3)nc12`, the TGI is more than 100 µM in assay [1]; 73 µM in assay [2]; more than 100 µM in [3]; more than 100 µM in assay [4]; more than 100 µM in assay [5]; 37.9 µM in assay [6]. Besides, the TGI in [7] is more than 100 µM; in assay [8] it was more than 100 µM; in assay [9] it was 70 µM; in [11], more than 100 µM; in assay [12] it was more than 100 µM; in [13], 71.5 µM. Also, the TGI in assay [14] is more than 100 µM; in assay [15], 80.5 µM; in [16] it was 80 µM; in [17] it was 57.8 µM; in assay [18], more than 100 µM; in [19], 79.8 µM. In assay [20], this molecule registered a TGI of 54.1 µM.
Turning to `NC(=O)C(Nc1c(Cl)cccc1Cl)c1cc2cc(Br)ccc2nc1Cl` (stereo not given), the TGI in assay [1], in assay [2], in [3], in assay [4], in assay [5] and in assay [6] was more than 100 µM each time. Also, the TGI in assay [7], in [8], in assay [9], in [10], in assay [11] and in assay [12] was more than 100 µM each time. The TGI in [13], in [14], in assay [15], in assay [16], in assay [17] and in assay [18] was more than 100 µM each time. In [19], the TGI was more than 100 µM.
On to `O=C1NC(N2CCOCC2)=N/C1=C\c1cccs1`, for which the TGI in assay [1], in [2], in assay [3], in assay [4], in [5] and in [6] was more than 100 µM each time. The TGI in [7], in assay [8], in assay [9], in assay [10], in [12] and in assay [13] was more than 100 µM each time. The TGI in assay [14], in assay [15], in assay [16], in assay [17], in assay [18] and in [19] was more than 100 µM each time. This molecule also returned a TGI in [20] of more than 100 µM.
Regarding `O=c1[nH]c(=O)n(C2OC(CO)C(O)C(F)C2O)cc1F` (stereo not given), the TGI in [1], in [2], in assay [3], in [4], in assay [5] and in assay [6] was more than 100 µM in each case. The TGI in assay [7], in assay [9], in assay [10], in assay [11], in [12] and in [13] was more than 100 µM in each case. Further, the TGI in assay [14], in [15], in assay [16], in assay [18], in [19] and in assay [20] was more than 100 µM in each case.
Regarding `CCOC(=O)/C(C)=C\[C@@]1(C)O[C@@H](C)[C@@](C)(OC(C)=O)[C@@H]1OC(C)=O`, the TGI in [1], in assay [2], in assay [3], in [4], in [5] and in assay [6] was more than 100 µM throughout. The TGI in assay [7], in assay [8], in assay [9], in assay [10], in [11] and in assay [12] was more than 100 µM each time. The TGI in [13] is more than 100 µM; in assay [14] it was more than 100 µM; in assay [15], more than 100 µM; in assay [16], more than 100 µM; in assay [18] it was more than 100 µM; in [19], 59.8 µM. The molecule also showed a TGI in assay [20] of more than 100 µM.
`COc1ccc(/C=C2/C(C)=NN(c3cccc(Cl)c3)/C2=N/c2nc3ccccc3s2)cc1`: the TGI in [2] is 42.2 µM; in assay [4], 39.4 µM; in assay [5], 33.2 µM; in assay [6] it was 51.4 µM; in assay [7] it was 47.7 µM; in [8], 46.7 µM. Further, the TGI stood at 33.4 µM in assay [9]; 43.2 µM in [11]; 71.6 µM in assay [12]; 38 µM in assay [13]; 66.9 µM in assay [14]; 33.7 µM in assay [15]. Besides, the TGI in assay [17] is 86.6 µM; in assay [18], 52 µM; in assay [19], more than 100 µM; in assay [20], 47 µM.
